The values that follow are results of earlier work, collected in patent EP4778980A1, “SILICONE MATERIAL, SILICONE TUBE, IMPLANT AND PREPARATION METHOD THEREFOR, ROD CORE, PERFORATED IMPLANT AND PREPARATION METHOD THEREFOR AND USE THEREOF” (SHENYANG XINGHUA PHARMACEUTICAL TECHNOLOGY CO., LTD, priority 2023, dated 2025).

Molecules are shown by their SMILES.

Take `Cc1nc2n(c(=O)c1CCN1CCC(c3noc4cc(F)ccc34)CC1)CCCC2O` (stereo not shown) [Paliperidone]: the solubility result is “Paliperidone (98% purity) Mw = 426.48, 0.05 mg/ml”.
